Like-named read-outs stand apart in the source and are kept apart here.
Molecular target: T1, human apical sodium-dependent bile acid transporter (hASBT) (Homo sapiens, UniProt Q12908)
T1 sequence (Q12908 1-348): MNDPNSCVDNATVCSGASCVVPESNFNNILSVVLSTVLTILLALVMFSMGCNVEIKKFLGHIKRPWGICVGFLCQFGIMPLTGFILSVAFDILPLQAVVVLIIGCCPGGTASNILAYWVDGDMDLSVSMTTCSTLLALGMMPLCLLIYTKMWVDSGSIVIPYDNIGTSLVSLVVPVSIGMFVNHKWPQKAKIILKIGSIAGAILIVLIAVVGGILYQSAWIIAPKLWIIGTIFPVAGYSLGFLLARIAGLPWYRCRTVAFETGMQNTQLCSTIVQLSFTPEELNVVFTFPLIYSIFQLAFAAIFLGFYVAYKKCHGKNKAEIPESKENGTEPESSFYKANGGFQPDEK
Test: time-dependent inactivation of [3H]-TCA uptake after pre-incubation, hASBT-MDCK
Type: cell-based

SMILES	KI (inactivation) (read-out: 7α-Ms-CDCA)	KI (inactivation) (read-out: 3β-Cl-CDCA)
C[C@H](CCC(=O)O)[C@H]1CC[C@H]2[C@@H]3[C@H](OS(C)(=O)=O)C[C@@H]4C[C@H](O)CC[C@]4(C)[C@H]3CC[C@]12C [7α-Ms-CDCA, 3α-hydroxy-7α-mesyloxy-5β-cholan-24-oic acid]	1190 ± 60 nM	
C[C@H](CCC(=O)O)[C@H]1CC[C@H]2[C@@H]3[C@H](O)C[C@@H]4C[C@@H](Cl)CC[C@]4(C)[C@H]3CC[C@]12C [3β-Cl-CDCA, 3β-chloro-7α-hydroxy-5β-cholan-24-oic acid]		810 ± 190 nM
